Laboratory results taken from paper PMC3541164, “Cytotoxic and potent CYP1 inhibitors from the marine algae Cymopolia barbata” (Organic and Medicinal Chemistry Letters, 2012).
Entries after “also recorded” stand apart in the source; their conditions may differ. Like-named read-outs stand apart in the source and are kept apart here.

Experiments:
CYP1A2 = target: T1, CYP1A2 (Homo sapiens, UniProt P05177); experiment: Fluorometric CYP inhibition assay, CEC dealkylation; assay type: biochemical; conditions: for IC50: recombinant CYP1A2, CEC 5 μM
T1 sequence (P05177 1-516): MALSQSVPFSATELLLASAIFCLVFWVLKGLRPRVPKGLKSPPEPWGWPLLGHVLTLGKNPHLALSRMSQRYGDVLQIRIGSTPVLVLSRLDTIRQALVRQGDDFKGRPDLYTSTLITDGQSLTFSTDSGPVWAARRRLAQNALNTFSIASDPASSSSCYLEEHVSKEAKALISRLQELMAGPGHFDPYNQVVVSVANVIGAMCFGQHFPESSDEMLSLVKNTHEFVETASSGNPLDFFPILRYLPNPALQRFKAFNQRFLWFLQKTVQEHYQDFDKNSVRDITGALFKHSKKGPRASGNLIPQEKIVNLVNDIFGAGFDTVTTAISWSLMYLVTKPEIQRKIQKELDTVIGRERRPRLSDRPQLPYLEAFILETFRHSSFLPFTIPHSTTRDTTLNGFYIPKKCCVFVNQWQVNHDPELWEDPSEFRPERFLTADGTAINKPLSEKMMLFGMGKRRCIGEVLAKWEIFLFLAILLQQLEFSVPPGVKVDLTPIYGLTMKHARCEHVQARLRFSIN
Method: (§2) The test compounds were evaluated for their ability to inhibit the catalytic activity of human CYP1 enzymes by means of high throughput fluorometric detection assays conducted in 96-well microtitre plates as described elsewhere [16, 17]. 7-Ethoxyresorufin (ERes) was used as a substrate for detecting activity of CYP1B1 and 7-ethoxy-3-cyanocoumarin (CEC) was used as a substrate for both CYP1A1 and CYP1A2. Further, the substrates, 3-[2-(NN-diethyl-N-methylamino)ethyl]-7-methoxy-4methylcoumarin (AMMC), 7-benzyloxy-4-trifluoromethylcoumarin (BFC), and CEC were used as substrates for CYP2D6, CYP3A4, and CYP2C19, respectively. The reactions were monitored fluorometrically at 37°C, using a Varian Cary Eclipse fluorescence spectrophotometer.
(§3) IC50 and Ki values were determined by fitting the data in Sigma Plot (version 10.0) and enzyme kinetics module, using nonlinear regression analysis. The apparent Ki values were determined on the basis of visual inspection of Eadie-Hofstee and various statistics to evaluate goodness of fit, such as the size of the sum of squares of residuals, Akaike information criterion, and standard error (Enzyme kinetics module, version 1.3). The data listed represent the average values from three different determinations.
(§4) Data are expressed as mean percentage of control enzyme activity for three independent experiments.

CYP2D6 [1] = target: T2, CYP2D6 (Homo sapiens, UniProt P10635); experiment: biochemical
Method: as §2, §3, §4

CCD18 Co cells = experiment: MTS cell viability assay, normal colon cells; assay type: cell-based; conditions: normal colon cell line, 24 h exposure, MTS; for IC50: Homo sapiens, CCD-18Co
Method: (§1) Cell lines (CCD18 Co, HepG2 and MCF-7) were maintained in ATCC-formulated Eagle’s Minimum Essential Medium and HT29 was maintained in McCoy’s 5a Modified Medium supplemented with 10% fotal bovine serum (Atlas; Fort Collins, CO, USA), 10 mM HEPES solution, 100 mM L-glutamine penicillin streptomycin solution, 3 g/L glucose, and 1.5 g/L of sodium bicarbonate. Cells were maintained at 37°C with 5% CO2 in Corning 75 cm^2 culture flasks. Cells were exposed to a given isolate or known anticancer agent for 24 h. Following the appropriate treatments, cell viability was evaluated using an MTS assay according to the manufacturer’s instructions. All assays were performed at least three times and were monitored spectrophotometrically at 590 nm. Cell viability was recorded as percentage relative to vehicle solvent-treated control.

HT29 cells = experiment: MTS cell viability assay, colon cancer cells; assay type: cell-based; conditions: colon cancer cell line, 24 h exposure, MTS; for IC50: Homo sapiens, HT-29
Method: as §1

CYP1B1 [2] = target: T3, CYP1B1 (Homo sapiens, UniProt Q16678); experiment: Fluorometric CYP inhibition assay, ERes dealkylation; assay type: biochemical; conditions: for nature of inhibition of CYP1B1 activity: Eadie-Hofstee analysis, reversible; for Ki: apparent Ki, ERes dealkylation
T3 sequence (Q16678 1-543): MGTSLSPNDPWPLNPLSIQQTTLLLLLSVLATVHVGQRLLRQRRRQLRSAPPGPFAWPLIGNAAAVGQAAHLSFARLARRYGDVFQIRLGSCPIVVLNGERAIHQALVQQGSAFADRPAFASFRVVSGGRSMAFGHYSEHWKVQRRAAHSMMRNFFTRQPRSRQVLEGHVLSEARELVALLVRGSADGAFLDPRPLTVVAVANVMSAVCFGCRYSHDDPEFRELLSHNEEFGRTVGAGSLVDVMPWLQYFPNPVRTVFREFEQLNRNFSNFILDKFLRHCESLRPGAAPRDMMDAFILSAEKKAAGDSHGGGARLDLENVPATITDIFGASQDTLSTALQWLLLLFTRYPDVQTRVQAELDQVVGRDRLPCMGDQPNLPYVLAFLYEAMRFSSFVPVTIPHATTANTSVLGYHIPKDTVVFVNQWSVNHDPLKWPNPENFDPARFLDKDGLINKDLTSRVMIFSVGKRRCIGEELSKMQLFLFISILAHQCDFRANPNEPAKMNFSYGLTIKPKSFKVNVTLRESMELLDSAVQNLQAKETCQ
Method: as §2, §3, §4

CYP1A1 [3] = target: T4, CYP1A1 (Homo sapiens, UniProt P04798); experiment: Fluorometric CYP inhibition assay, CEC dealkylation; assay type: biochemical; conditions: for nature of inhibition of CYP1A1 activity: Eadie-Hofstee analysis, reversible; for Ki: apparent Ki, CEC dealkylation; for IC50: recombinant CYP1A1, CEC 0.5 μM
T4 sequence (P04798 1-512): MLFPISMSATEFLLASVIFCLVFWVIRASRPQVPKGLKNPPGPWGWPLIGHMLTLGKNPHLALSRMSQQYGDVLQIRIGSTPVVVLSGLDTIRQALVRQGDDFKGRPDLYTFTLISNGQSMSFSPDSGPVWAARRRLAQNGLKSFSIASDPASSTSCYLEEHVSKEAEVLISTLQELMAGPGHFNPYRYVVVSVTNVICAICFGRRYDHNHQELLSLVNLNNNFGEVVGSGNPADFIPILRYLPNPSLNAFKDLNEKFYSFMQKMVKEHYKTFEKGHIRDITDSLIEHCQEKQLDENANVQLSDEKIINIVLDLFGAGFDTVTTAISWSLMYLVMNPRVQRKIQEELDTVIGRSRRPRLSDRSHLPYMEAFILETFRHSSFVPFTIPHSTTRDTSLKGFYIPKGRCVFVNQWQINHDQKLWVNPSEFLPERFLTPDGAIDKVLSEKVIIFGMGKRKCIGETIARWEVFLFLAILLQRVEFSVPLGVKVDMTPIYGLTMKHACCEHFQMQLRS
Method: as §2, §3, §4

CYP2C19 [4] = target: T5, CYP2C19 (Homo sapiens, UniProt P33261); experiment: as above; assay type: in vitro ADME; conditions: recombinant CYP2C19, CEC 25 μM
Method: as §2, §3, §4

HepG2 cells = experiment: MTS cell viability assay, liver cancer cells; assay type: cell-based; conditions: liver cancer cells, 24 h exposure, MTS
Method: as §1

CYP3A4 = CYP3A4 (Homo sapiens, UniProt P08684); experiment: Fluorometric CYP inhibition assay, BFC debenzylation; assay type: in vitro ADME
Method: as §2, §3, §4

MCF-7 cells = experiment: MTS cell viability assay, breast cancer cells; assay type: cell-based; conditions: breast cancer cells, 24 h exposure, MTS
Method: (§5) Cells were maintained at 37°C with 5% CO2 in Corning 75 cm^2 culture flasks. Cells were exposed to a given isolate or known anticancer agent for 24 h. Following the appropriate treatments, cell viability was evaluated using an MTS assay according to the manufacturer’s instructions [14]. All assays were performed at least three times and were monitored spectrophotometrically at 590 nm [15]. Cell viability was recorded as percentage relative to vehicle solvent-treated control.

CYP1B1 [5] = target: T3, CYP1B1; conditions: published value for known inhibitor; cited from earlier work
CYP1A1 [6] = target: T4, CYP1A1; conditions: published value for known inhibitor; cited from earlier work
[7] = MTS cell viability assay, normal colon cells; assay type: cell-based; conditions: human, CCD18 Co normal colon cells; at 60 μM, CCD18 Co; read-out: impact on cell viability
Method: as §1

[8] = MTS cell viability assay, colon cancer cells; assay type: cell-based; conditions: human, HT29 colon cancer cells; at 60 μM, HT29; read-out: impact on cell viability
Method: as §1

[9] = MTS cell viability assay, liver cancer cells; assay type: cell-based; conditions: human, HepG2 liver cancer cells; at 60 μM, HepG2; read-out: impact on cell viability
Method: as §1

CYP2D6 [10] = target: T2, CYP2D6; experiment: in vitro; conditions: recombinant CYP2D6
Method: as §2, §3, §4

[11] = MTS cell viability assay, breast cancer cells; assay type: cell-based; conditions: human, MCF-7 breast cancer cells; at 60 μM, MCF-7; read-out: impact on cell viability
Method: as §5

CYP2C19 [12] = target: T5, CYP2C19; conditions: read-out: published IC50 CYP2C19; published value for known inhibitor; cited from earlier work
CYP1A1 [13] = test system: CYP1A1; design: method as in PMID 10188874; conditions: MCF-7 breast cancer cells; cited from earlier work
[14] = recombinant CYP1B1, ERes 0.37 μM, read-out: IC50 CYP1B1

T5 sequence (P33261 whole entry): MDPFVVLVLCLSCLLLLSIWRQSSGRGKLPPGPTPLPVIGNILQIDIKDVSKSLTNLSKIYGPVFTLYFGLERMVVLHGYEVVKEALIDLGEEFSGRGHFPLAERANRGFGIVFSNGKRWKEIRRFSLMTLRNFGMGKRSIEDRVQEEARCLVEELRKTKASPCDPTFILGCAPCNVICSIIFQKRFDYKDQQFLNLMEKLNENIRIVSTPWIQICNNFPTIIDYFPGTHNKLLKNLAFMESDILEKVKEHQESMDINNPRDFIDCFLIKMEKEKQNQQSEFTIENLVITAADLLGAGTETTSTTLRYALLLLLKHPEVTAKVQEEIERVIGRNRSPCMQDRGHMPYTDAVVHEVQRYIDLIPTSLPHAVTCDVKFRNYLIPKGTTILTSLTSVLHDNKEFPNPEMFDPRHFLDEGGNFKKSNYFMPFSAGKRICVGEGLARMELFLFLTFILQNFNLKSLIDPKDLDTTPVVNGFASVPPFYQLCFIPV
Chain of CYP3A4 (P08684 whole entry): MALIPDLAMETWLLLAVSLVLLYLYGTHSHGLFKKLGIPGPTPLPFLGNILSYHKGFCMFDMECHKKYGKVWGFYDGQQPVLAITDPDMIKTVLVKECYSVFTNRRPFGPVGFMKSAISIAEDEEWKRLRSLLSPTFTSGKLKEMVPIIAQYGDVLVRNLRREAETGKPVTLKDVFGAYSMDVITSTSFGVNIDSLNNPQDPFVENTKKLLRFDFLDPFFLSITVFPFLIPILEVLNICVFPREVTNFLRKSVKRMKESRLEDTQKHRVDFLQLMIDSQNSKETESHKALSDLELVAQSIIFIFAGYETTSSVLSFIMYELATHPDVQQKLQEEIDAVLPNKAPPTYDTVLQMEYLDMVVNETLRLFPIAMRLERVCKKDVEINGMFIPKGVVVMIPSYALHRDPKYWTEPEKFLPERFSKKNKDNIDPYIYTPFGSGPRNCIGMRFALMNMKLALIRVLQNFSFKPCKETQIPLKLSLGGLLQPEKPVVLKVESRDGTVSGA
T2 sequence (P10635 whole entry): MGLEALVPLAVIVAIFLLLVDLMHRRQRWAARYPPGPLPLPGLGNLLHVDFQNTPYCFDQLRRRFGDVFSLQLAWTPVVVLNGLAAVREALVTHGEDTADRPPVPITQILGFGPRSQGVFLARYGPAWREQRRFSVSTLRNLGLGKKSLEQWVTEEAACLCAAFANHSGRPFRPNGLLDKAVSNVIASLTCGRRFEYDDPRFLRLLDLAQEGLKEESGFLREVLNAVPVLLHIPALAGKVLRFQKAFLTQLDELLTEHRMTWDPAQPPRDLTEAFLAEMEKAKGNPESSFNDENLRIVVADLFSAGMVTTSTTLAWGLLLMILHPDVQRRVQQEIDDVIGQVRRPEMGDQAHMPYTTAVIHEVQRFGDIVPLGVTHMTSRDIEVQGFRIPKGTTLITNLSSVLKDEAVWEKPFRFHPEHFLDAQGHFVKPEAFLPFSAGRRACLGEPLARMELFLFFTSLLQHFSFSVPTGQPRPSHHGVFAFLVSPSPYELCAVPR

Row | Compound | IC50 (CCD18 Co cells) [nM] | IC50 (HT29 cells) [nM] | nature of inhibition of CYP1B1 activity (CYP1B1 [2]) | Ki (CYP1B1 [2]) [nM] | IC50 (CYP1B1 [2]; [14]) [nM] | nature of inhibition of CYP1A1 activity (CYP1A1 [3]) | Ki (CYP1A1 [3]) [nM] | IC50 (CYP1A1 [3]) [nM] | IC50 (CYP2C19 [4]) [nM] | IC50 cell viability HepG (HepG2 cells) | IC50 cell viability MCF-7 (MCF-7 cells) | other results
1 | C/C(=C\C(=O)c1cc(O)c(Br)cc1O)CCCC(C)(C)O [PBQ2, 7-hydroxycymopolone] | 55600 ± 3280 | 19800 ± 460 | partial noncompetitive inhibition | 4.7 | 140 ± 40 | uncompetitive inhibition | 840 ± 70 | 930 ± 260 | 120 ± 60 | NI (no impact (<10% inhibition at 60 μM)) | NI (no impact (<10% inhibition at 60 μM)) | IC50 (CYP1A2): 10600 ± 6750 nM; IC50 (CYP2D6 [1]): 2750 ± 960 nM; IC50 (CYP3A4; recombinant CYP3A4, BFC 50 μM, read-out: IC50 CYP3A4): 8310 ± 4670 nM
2 | CC(=O)N1CCN(c2ccc(OCC3COC(Cn4ccnc4)(c4ccc(Cl)cc4Cl)O3)cc2)CC1 (centres unmarked) [ketoconazole, reference compound] | – | – | – | – | 6300 ± 1700 | – | – | 40 ± 10 | – | – | – | IC50 (CYP1B1 [5]): < 10000 nM; IC50 (CYP1A1 [6]): < 10000 nM
3 | CC(C)(O)CCCC1(C)CC(=O)c2cc(O)c(Br)cc2O1 (centres unmarked) [PBQ1, 7-Hydroxycymopochromanone] | – | – | uncompetitive inhibition | 260 ± 30 | – | partial non competitive; also recorded: partial noncompetitive inhibition | 3070 ± 690 | – | – | NI (no impact (<10% inhibition at 60 μM)) | NI (no impact (<10% inhibition at 60 μM)) | nature of inhibition of CYP1A2 activity (CYP1A2; Eadie-Hofstee analysis, reversible): noncompetitive inhibition; Ki (CYP1A2; apparent Ki, CEC dealkylation): 9160 ± 4680 nM; IC50 (CYP1A2; human, probe 7-ethoxy-3-cyanocoumarin (CEC)): 9750 ± 36.5 nM; viability at 24 h, 60 µM [7]: < 10%; IC50 cell viability CCD18 Co (CCD18 Co cells): NI (no impact (<10% inhibition at 60 μM)); IC50 cell viability HT29 (HT29 cells): NI (no impact (<10% inhibition at 60 μM)); viability at 24 h, 60 µM [8]: < 10%; IC50 (CYP1B1 [2]; human): 1420 ± 140 nM; viability at 24 h, 60 µM [9]: < 10%; IC50 (CYP3A4; human, recombinant enzyme): 5070 ± 3540 nM; IC50 (CYP2D6 [10]): 1030 ± 400 nM; viability at 24 h, 60 µM [11]: < 10%
4 | CCC1(c2ccccc2)C(=O)NC(=O)N(Cc2ccccc2)C1=O (single isomer, unassigned; (-)) [(−)-N-3-Benzyl-phenobarbital, reference compound] | – | – | – | – | – | – | – | – | 300 ± 10 | – | – | IC50 (CYP2C19 [12]): 250 nM
5 | O=c1[nH]cc(F)c(=O)[nH]1 [Fluorouracil, fluorouracil, reference compound] | 55500 ± 3710 | 23500 ± 1120 | – | – | – | – | – | – | – | – | – | –
6 | O=c1c(O)c(-c2ccccc2)oc2cc(O)cc(O)c12 [galangin] | – | – | – | – | – | – | – | – | – | – | – | nature of inhibition of DMBA-induced CYP1A1 (CYP1A1 [13]): noncompetitive, dose-dependent
